{"source": "patent US9597391B2", "about": "“Cyclic-dinucleotides and its conjugates as adjuvants and their uses in pharmaceutical compositions” (HELMHOLTZ_ZENTRUM FUER INFEKTIONSFORSCHUNG GMBH, priority 2005, dated 2017)", "key": {"[1]": {"system": "spleen cells", "experiment": "[3H]thymidine proliferation of spleen cells from vaccinated mice restimulated in vitro with β-gal", "format": "in vivo", "conditions": "for T cell proliferation after i.n. and s.c. administration: versus β-gal alone; for proliferation of spleen cells, i.n. immunization / proliferation of spleen cells, s.c. immunization: day 38, in vitro restimulation with β-gal; for proliferation of spleen cells, i.n. immunization: low amounts of antigen (FIG. 6); for proliferation of spleen cells, s.c. immunization: [3H]thymidine (FIG. 6)", "procedure": "Experimental protocol: Spleens were removed and pooled for analysis of cellular immune responses. Cells were grown in RPMI 1640 supplemented with 10% fetal calf serum, 100 U/ml of penicillin, 50 μg/ml of streptomycin, 5×10^−5 M 2-mercaptoethanol and 1 mM L-glutamine (GIBCO BRL, Karlsruhe, Germany) and maintained at 37° C. in a humidified 5% CO2 atmosphere. Spleen cell suspensions were adjusted to 5×10^6 cells/ml in complete medium, cells were seeded with 100 μl per well in a flat-bottomed 96-well microtiter plate (Nunc) and plates were incubated for 4 days in the presence of different concentrations of soluble β-gal. That is, T cell mediated immune responses were investigated at day 38 by measuring the proliferation after in vitro restimulation with β-Gal of cells which have been recovered from spleens before. Said spleen cells were obtained from vaccinated mice—said mice where immunized as described in Example 2—and incubated in the presence of different concentrations of the soluble β-Gal antigen. Each concentration was tested in quadruplicates. During the final 18 h of culture, 1 μCi of [3H]thymidine (Amersham International, Freiburg, Germany) was added to each well. Cells were then harvested on paper filters (Filtermat A; Wallac, Freiburg, Germany) by using a cell harvester (Inotech, Wohlen, Switzerland), and the amount of incorporated [3H]thymidine into the DNA of proliferating cells was determined by a β-scintillation counter (Wallac 1450, Micro-Trilux). The results are expressed as the arithmetic mean of [^3H]thymidine uptake in cpm.\nThirty eight days following vaccination, spleens cells were purified, re-stimulated in vitro in the presence of various amounts of β-galactosidase and their proliferative capacity was estimated by measuring the incorporation of [3H]thymidine into their DNA using a β-scintillation counter."}, "[2]": {"system": "primary bone marrow-derived murine dendritic cells", "experiment": "In vitro stimulation of primary bone marrow-derived murine dendritic cells, flow cytometry of surface markers", "format": "cell-based, BALB/c mice", "conditions": "10 ng/ml c-diGMP, flow cytometry after 12 h and 24 h, versus no stimulus (FIG. 1)", "procedure": "Experimental protocol: primary bone marrow-derived dendritic cell cultures were obtained from BALB/c mice following in vitro maturation of precursors in the presence of recombinant GM-CSF (5×104 U/ml), according to established protocols, e.g. Link, C., etal, 2004, Eur. J. Immuol, 34(3):899-907. Mature dendritic cells were stimulated with 10 ng/ml of E. coli lypopolysaccharide (LPS) or 10 ng/ml c-diGMP. The stimulation of cells was analyzed by flow cytometry to assess the expression of surface markers which are relevant for their antigen presentation capacity after 12 h and 24 h, respectively.\nIn order to identify compounds which may have potential as adjuvants for in vivo applications in the field of vaccines, a first in vitro screening based on the use of primary cultures of bone marrow-derived dendritic cells was established. Dendritic cells were selected since they represent the most efficient antigen presenting cells and they play a key role in primary immune responses. In fact, they represent the only cell type able to activate resting T cells initiating primary immune responses in vivo. […] At different time intervals, samples were taken, stained with fluorescent-labeled antibodies specific for cellular markers critical for the antigen presenting capacities of dendritic cells, and analyzed by flow cytometry."}, "[3]": {"system": "spleen cells", "experiment": "ELISPOT of cytokine producing spleen cells from vaccinated mice", "format": "in vivo", "conditions": "for expression of various cytokines: administered as an adjuvant (FIG. 10); for splenic IL-2 producing cells / splenic IL-4 producing cells: i.n. and s.c. route, restimulation with β-Gal protein; for antigen-specific IFNγ secreting cells / antigen-specific IL-2 secreting cells / antigen-specific IL-4 secreting cells: mice receiving adjuvant; for number of splenic IFNγ producing cells, parenteral vaccination: s.c., restimulation with MHC class I-restricted β-Gal peptide (CD8 epitope) (FIG. 10)", "procedure": "Experimental protocol: Spleens from vaccinated mice were removed and pooled for analysis of cellular immune responses. The protocol for vaccination was identical to the protocol described in Example 2. Cells were grown in RPMI 1640 supplemented with 10% fetal calf serum, 100 U/ml of penicillin, 50 μg/ml of streptomycin, 5×10^−5 M 2-mercaptoethanol and 1 mM L-glutamine (GIBCO BRL, Karlsruhe, Germany) and maintained at 37° C. in a humidified 5% CO2 atmosphere. […]\nFor coating ELISPOT plates, said plates were incubated with 100 μl/well of purified capture antibody (10 μg/ml in coating buffer) at 4° C. overnight. After 6× washing steps, the plates were blocked with 200 μl/well of complete RPMI-1640 at room temperature for 1 hour. The activated cells were seeded at 100 μl per well and incubate at 37° C., in a 5% CO2 humidified incubator for 24 hours or 48h hours. After 5× washing steps with washing buffer and 1× step with distilled water, 100 μl/well of the biotinylated detection antibody with a concentration of 1 μg/ml in Assay Diluent was added and incubated at room temperature for 2 hrs. After further washing steps 100 μl/well of the AV-HRP at 1/1000 dilution in Assay Diluent was added and incubated at room temperature for 30 minutes. After further washing steps 100 μl/well of AEC Substrate Solution was added and developed at room temperature for 10-60 minutes until visible spots appeared. After washing steps with (3×) with 200 μl/well distilled water, the plates were air-dried and analyzed by counting the spots by an ELISPOT reader. Each concentration was tested in triplicates."}, "[4]": {"system": "BALB/c (H-2d) mice", "experiment": "Isotype ELISA of β-gal-specific IgG1 and IgG2a in sera of vaccinated mice", "format": "in vivo", "procedure": "Isotyp ELISA: 96-well Nunc-Immuno MaxiSorp assay plates (Nunc, Roskilde, Denmark) were coated with 100 μl of β-gal (Boehringer, Mannheim, Germany) at 5 μg/ml in 0.05 M carbonate buffer (pH 9,6) per well. Serial two-fold dilutions of sera or lavages in PBS with 1% BSA and 0.05% Tween 20 were added (100 μl/well), and plates incubated for 2 h at 37° C. After washing, biotin-conjugated rat anti-mouse IgG1 or IgG2a (Pharmingen, Hamburg, Germany) were added to determine IgG subclasses. Plates were incubated for an additional 1 h at 37° C. After four washes, 100 μl of peroxidase-conjugated streptavidin (Pharmingen) was added to cells and plates incubated at 37° C. for 30 min. After four washes, reactions were developed with ABTS in 0.1 M citrate-phosphate buffer (pH 4.35) containing 0.01% H2O2. To determine the concentration of IgG subclasses in serum, standard curves were obtained by coating the wells with an isotype-specific goat anti-mouse IgG, and then by incubating with purified mouse IgG1 or IgG2 antibodies (Dianova, Hamburg, Germany).\nThe pattern of the different subclasses of the β-gal antigen-specific IgG isotypes present in the sera of vaccinated mice is shown in FIG. 12. […] The protocol for vaccination was identical to the protocol described in Example 3. […] The data represents the average titer of a group of 5 animals."}, "[5]": {"conditions": "i.n., average titer of 5 animals (FIG. 12A)"}, "[6]": {"conditions": "s.c., average titer of 5 animals (FIG. 12B)"}}, "data": [{"smiles": "Nc1nc2c(ncn2[C@@H]2O[C@@H]3COP(=O)(O)O[C@H]4[C@@H](O)[C@H](n5cnc6c(=O)[nH]c(N)nc65)O[C@@H]4COP(=O)(O)O[C@H]3[C@H]2O)c(=O)[nH]1", "note": "[c-diGMP, cyclic bis(3′-5′)diguanylic acid]", "values": [{"measurement": "T cell proliferation after i.n. and s.c. administration", "setting": "[1]", "value": "statistically significant increment"}, {"measurement": "proliferation of spleen cells, i.n. immunization", "setting": "[1]", "value": "efficient proliferative response"}, {"measurement": "proliferation of spleen cells, s.c. immunization", "setting": "[1]", "value": "further increase in proliferation"}, {"measurement": "expression of CD40 on dendritic cells", "setting": "[2]", "value": "up-regulated"}, {"measurement": "expression of various cytokines", "setting": "[3]", "value": "increased expression"}, {"measurement": "splenic IL-2 producing cells", "setting": "[3]", "value": "strong expression"}, {"measurement": "splenic IL-4 producing cells", "setting": "[3]", "value": "strong expression"}, {"measurement": "antigen-specific IFNγ secreting cells", "setting": "[3]", "value": "increased in number"}, {"measurement": "antigen-specific IL-2 secreting cells", "setting": "[3]", "value": "increased in number"}, {"measurement": "antigen-specific IL-4 secreting cells", "setting": "[3]", "value": "increased in number"}, {"measurement": "number of splenic IFNγ producing cells, parenteral vaccination", "setting": "[3]", "value": "increment"}]}, {"smiles": "Nc1ncnc2c1ncn2[C@@H]1O[C@@H]2COP(=O)(O)O[C@H]3[C@@H](O)[C@H](n4cnc5c(N)ncnc54)O[C@@H]3COP(=O)(O)O[C@H]2[C@H]1O", "note": "[c-diAMP, cyclic bis(3′-5′)diadenylic acid]", "values": [{"measurement": "T cell proliferation after i.n. and s.c. administration", "setting": "[1]", "value": "statistically significant increment"}, {"measurement": "proliferation of spleen cells, i.n. immunization", "setting": "[1]", "value": "efficient proliferative response"}, {"measurement": "proliferation of spleen cells, s.c. immunization", "setting": "[1]", "value": "further increase in proliferation"}, {"measurement": "β-gal specific IgG1 in sera, intranasal", "setting": "[4]; [5]", "value": "strongly increased"}, {"measurement": "β-gal specific IgG2a in sera, intranasal", "setting": "[4]; [5]", "value": "strongly increased"}, {"measurement": "β-gal specific IgG1 in sera, subcutaneous", "setting": "[4]; [6]", "value": "strongly increased"}, {"measurement": "β-gal specific IgG2a in sera, subcutaneous", "setting": "[4]; [6]", "value": "strongly increased"}, {"measurement": "expression of various cytokines", "setting": "[3]", "value": "increased expression"}, {"measurement": "splenic IL-2 producing cells", "setting": "[3]", "value": "strong expression"}, {"measurement": "splenic IL-4 producing cells", "setting": "[3]", "value": "strong expression"}, {"measurement": "antigen-specific IFNγ secreting cells", "setting": "[3]", "value": "increased in number"}, {"measurement": "antigen-specific IL-2 secreting cells", "setting": "[3]", "value": "increased in number"}, {"measurement": "antigen-specific IL-4 secreting cells", "setting": "[3]", "value": "increased in number"}, {"measurement": "number of splenic IFNγ producing cells, parenteral vaccination", "setting": "[3]", "value": "increment"}]}]}
